Data as given in patent US20110183366A1, “Methods for achieving a protective ACE2 expression level to treat kidney disease and hypertension” (priority 2004, published 2011).
“Also recorded” adds a separate entry of the source. Each block holds one compound with its values, some of them ahead of it.

What was measured:
[1] = test system: ACE and ACE2 in kidney cortex; experiment: 7-Mca-YVADAPK(Dnp) fluorescence assay in kidney cortex tissue extracts; type: biochemical, mouse; details: for fluorescence signal, % of control: EDTA 1 mmol/L, captopril and MLN-4760 alone or concomitantly
db/m and db/db mice [2] = experiment: Glomerular fibronectin staining after chronic ACE2 inhibition; type: in vivo, mouse
Protocol: Pharmacological ACE2 inhibition in db/m and db/db mice. A specific ACE2 inhibitor, MLN-4760 (kind gift from Millennium Pharmaceuticals, Cambridge, Mass.) was injected to db/m and db/db mice subcutaneously (40-80 mg per kg of body weight (mg/kg/BW), every other day), starting at 8 weeks of age until the mice reached the age of 24 weeks. Vehicle control mice received injections of sterile PBS in the same volume.
Chronic ACE2 inhibition was also associated with an increased glomerular deposition of fibronectin, an extracellular matrix protein. In glomeruli from db/m mice receiving MLN-4760, fibronectin staining was increased as compared to their vehicle-treated db/m counterparts. In db/db mice, the MLN-4760 administration was also associated with an exaggeration of fibronectin staining. The number of glomeruli with strong fibronectin staining was used to semi-quantify the observed changes in kidneys from 12-16 animals in each group.

db/m and db/db mice [3] = experiment: Urinary albumin/creatinine ratio during chronic ACE2 inhibition in db/m and db/db mice; type: in vivo, mouse
Excerpt: Pharmacological ACE2 inhibition in db/m and db/db mice. […] Vehicle control mice received injections of sterile PBS in the same volume. […] Urinary albumin/creatinine ratio. ELISA kits for murine urinary albumin and creatinine companion kits from Exocell were used according to manufacturer's instructions to measure albumin/creatinine ratio in urine samples. Spot urine samples were collected at 8 weeks of age, before initiating the administration of the ACE2 inhibitor, and the AT1 blocker (at 8 weeks of age) and after 12 and 16 weeks of administration of these agents. Statistical analysis. Statistical analysis was performed using unpaired t-test or ANOVA when appropriate. Significance was defined as p<0.05. Data were expressed as mean±SE. The Effect of chronic ACE2 inhibition on albumin excretion and glomerular fibronectin deposition. To determine the extent to which chronic ACE2 inhibition results in increased albuminuria in the db/db mice, a specific ACE2 inhibitor, MLN-4760, was administered to the mice for 16 consecutive weeks starting at 8 weeks of age. At 8 weeks of age, before starting MLN or vehicle administration, db/db mice from both groups had virtually indistinguishable levels of urinary albumin excretion (UAE; 69.5±18 vs. 81±15 μg albumin/mg creatinine, respectively). […] In db/m mice treated with MLN-4760, UAE was higher than in the vehicle-treated db/m controls, but the difference was small and not statistically significant (55±24 vs. 32±3, μg/mg, respectively, p=NS).

[4] = molecular target: T1, human recombinant (hr) ACE2 (Homo sapiens, UniProt Q9BYF1); experiment: Fluorescence quenching with 7-Mca-YVADAPK(Dnp) substrate on recombinant ACE2; type: biochemical; details: for quenching of fluorescence: hrACE2 20 nmol/L, inhibitor concentration up to 100 μmol/L
T1 construct: purchased R&D Systems
Protocol: A fluorescent substrate of ACE and ACE2, i.e., 7-Mca-YVADAPK(Dnp) (R&D Systems), was used to concurrently assay ACE and ACE2 protein activity in tissue samples. Cleavage of this substrate by either enzyme removes the 2,4-dinitrophenyl moiety that quenches the fluorescence of the 7-methoxycoumarin moiety, thus resulting in increased fluorescence. To prevent undesirable hydrolysis of the substrate by a range of non-metalloprotease enzymes from mouse tissues, all tests were performed with the addition of an inhibitor cocktail (complete EDTA-free tablets, Roche).
MLN-4760 quenched the signal completely at 1-10 nmol/L, whereas a higher concentration (100 nmol/L) of DX600 was needed to achieve complete quenching of the signal. Therefore, further studies were done using MLN-4760. In tissue extracts, the concentrations of MLN-4760 required for fluorescence quenching were high and more variable.

podocytes in culture = details: cited from earlier work

T1 sequence (Q9BYF1 18-805): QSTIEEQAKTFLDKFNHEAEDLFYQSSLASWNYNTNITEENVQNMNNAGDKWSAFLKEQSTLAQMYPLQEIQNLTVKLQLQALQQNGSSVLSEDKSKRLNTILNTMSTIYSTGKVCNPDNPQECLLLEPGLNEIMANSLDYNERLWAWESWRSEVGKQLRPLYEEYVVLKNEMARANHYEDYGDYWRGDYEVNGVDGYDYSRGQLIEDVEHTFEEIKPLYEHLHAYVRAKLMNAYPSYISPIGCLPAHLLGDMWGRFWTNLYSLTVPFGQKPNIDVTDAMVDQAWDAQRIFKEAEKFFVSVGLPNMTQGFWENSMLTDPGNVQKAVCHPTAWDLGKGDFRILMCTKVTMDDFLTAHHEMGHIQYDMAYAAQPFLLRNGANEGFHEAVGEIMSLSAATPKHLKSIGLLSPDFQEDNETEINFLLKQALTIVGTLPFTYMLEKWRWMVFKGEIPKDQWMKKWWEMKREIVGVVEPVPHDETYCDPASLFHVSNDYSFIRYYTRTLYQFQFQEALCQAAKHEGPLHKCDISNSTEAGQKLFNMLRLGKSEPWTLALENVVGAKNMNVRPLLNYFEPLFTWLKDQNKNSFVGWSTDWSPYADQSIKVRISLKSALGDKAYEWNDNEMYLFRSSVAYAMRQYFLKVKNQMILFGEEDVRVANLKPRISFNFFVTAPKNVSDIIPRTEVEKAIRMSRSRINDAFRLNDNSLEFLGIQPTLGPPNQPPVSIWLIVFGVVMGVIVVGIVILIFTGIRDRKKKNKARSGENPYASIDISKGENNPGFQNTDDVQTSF

SMILES: O=C(O)CN(CCN(CC(=O)O)CC(=O)O)CC(=O)O [EDTA]
fluorescence signal, % of control [1]: about 16 % of control

concentration for complete quenching of the signal ([4]; hrACE2): 1 to 10 nmol/L
SMILES: CC(C)C[C@H](N[C@@H](Cc1cncn1Cc1cc(Cl)cc(Cl)c1)C(=O)O)C(=O)O [MLN-4760, (S,S)-2-{1-carboxy-2-[3-(3,5-dichlorobenzyl)-3H-imidazol4-yl]-ethylamino}-4-methylpentanoic acid]
fluorescence signal, % of control [1]: 46.4±0.7 % of control
percentage of glomeruli with strong fibronectin staining (db/m and db/db mice [2]; db/db mice treated with MLN-4760, vehicle 28.5%±6.4): 54.8%±4.6
percentage of glomeruli with strong fibronectin staining (db/m and db/db mice [2]; db/m mice receiving MLN-4760, vehicle 17.3%±5.2): 41.1%±4.1
increase in UAE in comparison to vehicle db/db controls (db/m and db/db mice [3]; db/db mice, 16 weeks of treatment, age 24 weeks): about three-fold
albumin/creatinine ratio (db/m and db/db mice [3]; db/db mice, MLN-4760 s.c. 40-80 mg/kg every other day, after 12 weeks of treatment, vehicle 124±23): 474 ± 166 µg/mg
urinary albumin excretion (UAE) (db/m and db/db mice [3]; db/db mice, after 16 weeks of treatment, age 24 weeks, vehicle 247±53.9): 743 ± 200 µg/mg
urinary albumin excretion (UAE) (db/m and db/db mice [3]; db/m mice treated with MLN-4760, vehicle 32±3, p=NS): 55 ± 24 µg/mg

quenching of fluorescence [4]: failed to quench fluorescence
SMILES: O=C(O)CC(Cc1ccccc1)C(=O)O (stereo not drawn) [benzyl succinate]
reduction of fluorescence signal ([1]; benzyl succinate 100 μmol/L): did not reduce significantly the fluorescence signal

SMILES: C[C@H](CS)C(=O)N1CCC[C@H]1C(=O)O [captopril]
effect on stretch-induced increase in ANG II generation (podocytes in culture): did not abrogate the stretch-induced increase in ANG II generation
fluorescence signal, % of control [1]: 24.9±1.1 % of control
quenching of fluorescence [4]: failed to quench fluorescence

SMILES: CCCc1nc2c(C)cc(-c3nc4ccccc4n3C)cc2n1Cc1ccc(-c2ccccc2C(=O)O)cc1 [telmisartan]
effect on the increase in urinary albumin associated with the ACE2 inhibitor (db/m and db/db mice [3]; db/db mice, telmisartan 2 mg/kg/day in drinking water together with s.c. MLN-4760): prevented the increase in urinary albumin excretion; also recorded: completely prevented the increase in urinary albumin
